In US20160199364A1, “SEIZURE TREATMENT COMPOSITIONS AND METHODS” (Creighton University, priority 2015, published 2016):

Experiments:
[1] = test system: spontaneous recurrent seizures in epileptic Kv1.1 knockout (KO) mice; test: Spontaneous recurrent seizures by 24 hr video-EEG (seizure incidence, seizure burden index); assay type: in vivo, mouse
Description: (§1) Dietary and pharmacological treatments. […] For dietary experiments involving Kv1.1WT and Kv1.1KO mice, drinking water contained either 0.0323% DMSO vehicle or GW9662 ([…]) to obtain an average dosage of 1.062±0.038 mg/kg/day (n=18). There was no difference in the average daily water consumption or resulting GW9662 dosage between experimental groups (see FIG. 2H). […] Three hours after the last pioglitazone injection, mice were euthanized and brains processed for western blot, electrophysiology, or mitochondria experiments.
Intracranial electroencephalography electrode implantation and seizure analysis. On P27, mice underwent surgical implantation of electrodes. Mice were maintained under isoflurane anesthesia and normothermic conditions. One ground (1.5 mm anterior lamba, 1.5 mm lateral) and two subdural (1 mm posterior Bregma, 1.5 mm bilateral) intracranial cortical electroencephalographic (iEEG) electrodes were implanted, secured, and attached to a headmount. […] EEG recordings were acquired with a 250 Hz sampling rate and band-pass filtered between 0.5 and 40 Hz. During seizure monitoring, mice were single-housed in hexagon cages. EEG recordings were imported into Spike2 v6-7 software (Cambridge Electronic Design, Cambridge, England) for initial seizure identification using time-frequency analysis. […] Incidence and severity of each seizure was scored for the first 15 minutes of each hour during the time period of highest seizure occurrence for Kv1.1KO mice (00:00-08:00). Seizure severity was scored using a modified Racine scale: 0—normal; 1—myoclonic jerk or “pop;” 2—side-to-side head movement; 3—forelimb/hindlimb clonus, tail extension, a single rearing event; 4—continuous rearing and falling; 5—severe tonic-clonic seizures. To weigh the incidence and severity of seizures, seizure burden index (SBI) scores were calculated using the equation: SBI=[Σ(σiγi)]/ε, where σ indicates the severity; i indicates each stage of seizure (1-5); γ is the incidence; and ε indicates the total number of epochs scored.

[2] = Body weight; assay type: in vivo, mouse; settings: pioglitazone 10 mg/kg/day i.p., five days; Kv1.1WT or Kv1.1KO mice
[3] = test system: hippocampal mossy fiber-CA3 synapse and CA3 network; test: Acute hippocampal slice multielectrode array recordings after in vivo treatment; set-up: species or system mouse; settings: Kv1.1KO mice treated in vivo (pioglitazone 10 mg/kg/day i.p. or KD), hippocampal slices
Description: as §1
Acute hippocampal slice preparation and multielectrode array recordings. […] Spontaneous and evoked extracellular potentials were recorded with Mobius v2 software (Witwerx Inc., Tustin, Calif., USA) and acquired at a 20 kHz sampling rate with a bandwidth of 0.1 Hz-10 kHz. Post-synaptic field potentials and short-term plasticity of the mossy fiber (MF)-CA3 synapse were obtained by successive paired stimulations (50 ms inter-stimulus interval, 50% maximal intensity) of Dentate granule cell mossy fibers located in the hilar region and recorded in CA3 stratum lucidum. Paired pulse facilitation was calculated by dividing the slope (10-90%) of stimulation 2 by the slope of stimulation 1 and presented as the percent above stimulation 1. […]

[4] = test system: mitochondrial respiratory complex I (MRCI); test: Oxygen polarography of isolated cortical mitochondria after in vivo treatment; set-up: species or system mouse; settings: Kv1.1KO mice treated in vivo (pioglitazone 10 mg/kg/day i.p. or KD)
Description: as §1
Mitochondrial isolation and oxytherm polarography. Mice were anesthetized with isoflurane and cortical tissue was quickly micro-dissected on ice. Tissue was homogenized in isolation buffer (5×V/V in mM: 215 mannitol, 75 sucrose, 1 EGTA 20 HEPES and 0.1% BSA, pH 7.2 adjusted with KOH) and mitochondria were isolated using differential centrifugation. Isolated mitochondria were resuspended in isolation buffer without EGTA. Protein concentrations were determined with Bradford assay. […] Oxygen polarography was measured using a standard Clark-type electrode (Hanstech Instruments, Ltd., Norfolk, England). […] Only samples with a respiratory control ratio greater than 4 were analyzed. Unbiased assessment of the rate of oxygen consumption was determined using computer-generated line of best-fit algorithm and nmol of oxygen mg^−1 min^−1 was calculated.

Compound | KD anti-seizure efficacy ([1]; GW9662 ~1 mg/kg/day co-administered throughout KD treatment, Kv1.1KO mice) | Kv1.1KO seizures (worsening) ([1]; GW9662 ~1 mg/kg/day in drinking water, Kv1.1KO mice) | induction of spontaneous seizures in WT mice ([1]; GW9662 ~1 mg/kg/day in drinking water, WT mice) | body weight [2] | attenuation of HFO (high frequency oscillation) incidence ([3]; CA3 network) | increase of mossy fiber paired pulse facilitation [3] | improvement of mitochondrial respiration (MRCI State III) [4]
O=C(Nc1ccccc1)c1cc([N+](=O)[O-])ccc1Cl [GW9662] | prevented | did not worsen | did not | – | – | – | –
CCc1ccc(CCOc2ccc(CC3SC(=O)NC3=O)cc2)nc1 (stereo not shown) [pioglitazone] | – | – | – | did not change | ~60% | ~45% | ~80%
